Common to all, as to assay: Enzyme inhibiting activity of MMPs, fluorogenic peptide substrate
Holding throughout (type): biochemical

Experiment [1] has as its target T1, MMP-2 (Homo sapiens, UniProt P08253).
T1 construct: purchased Calbiochem (EMD/MERCK Biosciences)
T1 sequence (P08253 110-660): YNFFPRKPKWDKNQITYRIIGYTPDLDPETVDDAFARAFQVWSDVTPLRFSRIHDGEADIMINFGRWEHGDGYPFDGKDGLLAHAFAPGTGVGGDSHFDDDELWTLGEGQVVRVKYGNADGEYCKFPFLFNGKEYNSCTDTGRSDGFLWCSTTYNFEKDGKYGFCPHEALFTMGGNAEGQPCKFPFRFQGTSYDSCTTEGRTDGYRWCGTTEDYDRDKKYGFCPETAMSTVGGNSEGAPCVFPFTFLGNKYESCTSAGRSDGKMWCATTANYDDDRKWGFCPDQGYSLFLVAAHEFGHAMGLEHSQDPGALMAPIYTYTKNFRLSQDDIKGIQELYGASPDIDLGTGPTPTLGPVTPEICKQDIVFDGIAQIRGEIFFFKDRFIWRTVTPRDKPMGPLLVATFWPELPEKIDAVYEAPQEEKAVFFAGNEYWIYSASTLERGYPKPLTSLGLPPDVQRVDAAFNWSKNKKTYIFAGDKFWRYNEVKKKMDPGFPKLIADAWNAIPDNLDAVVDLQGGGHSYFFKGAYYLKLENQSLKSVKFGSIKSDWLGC
Particulars: substrate MOCAc-Pro-Leu-Gly-Leu-A2Pr(DNP)-Ala-Arg-NH2, fluorescent intensity. The gist of the method: (§1)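 Recombinant human enzymes with the fluorogenic substrate MOCAc-Pro-Leu-Gly-Leu-A2Pr(DNP)-Ala-Arg-NH2. Fluorescence was read for enzyme+substrate±inhibitor and substrate±inhibitor blanks.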

In experiment [2] the target is T2, MMP-9 (Homo sapiens, UniProt P14780).
T2 construct: purchased Calbiochem (EMD/MERCK Biosciences)
T2 sequence (P14780 94-707): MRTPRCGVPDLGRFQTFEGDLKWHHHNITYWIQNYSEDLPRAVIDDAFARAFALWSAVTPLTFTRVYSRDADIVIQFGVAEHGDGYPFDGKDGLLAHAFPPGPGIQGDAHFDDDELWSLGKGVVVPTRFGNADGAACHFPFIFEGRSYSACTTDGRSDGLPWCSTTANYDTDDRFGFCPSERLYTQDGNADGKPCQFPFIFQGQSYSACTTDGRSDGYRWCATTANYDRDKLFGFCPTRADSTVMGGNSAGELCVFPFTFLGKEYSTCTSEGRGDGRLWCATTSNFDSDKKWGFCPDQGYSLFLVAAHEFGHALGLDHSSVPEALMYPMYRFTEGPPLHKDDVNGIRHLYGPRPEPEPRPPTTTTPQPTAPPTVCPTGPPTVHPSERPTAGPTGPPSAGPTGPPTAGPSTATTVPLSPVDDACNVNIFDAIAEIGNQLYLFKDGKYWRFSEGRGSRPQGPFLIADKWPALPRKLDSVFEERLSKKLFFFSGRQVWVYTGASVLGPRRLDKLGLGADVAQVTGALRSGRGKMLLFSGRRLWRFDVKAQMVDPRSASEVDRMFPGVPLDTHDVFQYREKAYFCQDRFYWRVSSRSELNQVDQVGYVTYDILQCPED
The following applies: substrate MOCAc-Pro-Leu-Gly-Leu-A2Pr(DNP)-Ala-Arg-NH2, fluorescent intensity. The gist of the method:
as §1

Experiment [3] addresses T3, MMP-13 (Homo sapiens, UniProt P45452).
T3 construct: purchased Calbiochem (EMD/MERCK Biosciences)
Particulars: APMA-activated proenzyme; substrate MOCAc-Pro-Leu-Gly-Leu-A2Pr(DNP)-Ala-Arg-NH2, fluorescent intensity; read-out: IC50 MMP-13. The gist of the method:
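Pro-MMP-13 was activated with 1 mM APMA at 37° C for 2 h in 50 mM Tris-HCl pH 7.6, 0.3 M NaCl, 10 mM CaCl2, 0.005% Brij35. Activity was read by fluorescence using MOCAc-Pro-Leu-Gly-Leu-A2Pr(DNP)-Ala-Arg-NH2 substrate, with enzyme and inhibitor blank corrections. IC50 is the concentration giving 50% inhibition.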

What is called IC50 is the concentration at which inhibition is half-maximal. Regarding `CC(C)[C@@H](NS(=O)(=O)N1CCN(c2ccc(C#Cc3ccnc(C(=O)NCc4ccc(N5CCCCC5)cc4)c3)cc2)CC1)C(=O)O` [III-171, (R)-3-methyl-2-(4-{4-[2-(4-piperidin-1-ylbenzylcarbamoyl)-pyridin-4-ylethynyl]-phenyl}-piperazine-1-sulfonylamino)-butanoic acid], the IC50 is 1000 to 10000 nM in experiment [1], over 10000 nM in experiment [2] and 7 nM in experiment [3].

Regarding `CCc1cnc(-c2cc(C#Cc3ccc(N4CCN(S(=O)(=O)N[C@H](C)C(=O)O)CC4)cc3)ccc2OCCOC)o1` [Compound V-23, (R)-2-(4-{4-[3-(5-ethyloxazol-2-yl)-4-(2-methoxyethoxy)-phenylethynyl]-phenyl}-piperazine-1-sulfonylamino)-proponic acid], the IC50 is 1000 to 10000 nM in experiment [1], over 10000 nM in experiment [2] and 4 nM in experiment [3].

For `CC(C)[C@@H](NS(=O)(=O)N1CCN(c2ccc(C#Cc3cc(C(=O)NCc4ccccc4)c(=O)n(C)c3)cc2)CC1)C(=O)O` [III-30, (R)-2-{4-[4-(5-benzylcarbamoyl-1-methyl-6-oxo-1,6-dihydropyridin-3-ylethynyl)-phenyl]-piperazine-1-sulfonylamino}-3-methylbutanoic acid], the IC50 in experiment [1] was 1000 to 10000 nM; in experiment [2], over 10000 nM; in experiment [3], 22 nM.

Turning to `COc1ccc(C#Cc2ccc(N3CCN(S(=O)(=O)N[C@H](C)C(=O)O)CC3)cc2)cc1-c1ncc(CC(=O)NCc2ccccc2)o1` [Compound V-12, (R)-2-[4-(4-{3-[5-(benzylcarbamoylmethyl)-oxazol-2-yl]-4-methoxyphenylethynyl}-phenyl)-piperazine-1-sulfonylamino]-proponic acid], the concentration for half-maximal inhibition (IC50) in experiment [1] is 1000 to 10000 nM; in experiment [2] it was over 10000 nM; in experiment [3] it was 4 nM.

In the case of `COCCOc1ccc(C#Cc2ccc(N3CCN(S(=O)(=O)N[C@@H](C(=O)O)C(C)C)CC3)cc2)cc1-c1ncc(CC(=O)NCc2ccccc2)o1` [Compound V-24, (R)-2-(4-{4-[3-[5-(benzylearbamoylmethyl)-oxazol-2-yl]-4-(2-methoxyethoxy)-phenylethynyl]-phenyl}-piperazine-1-sulfonylamino)-3-methylbutanoic acid], the values for the half-inhibitory concentration (IC50) in experiment [1], in experiment [2] and in experiment [3] were over 10000 nM, over 10000 nM and 23 nM, respectively.

As to `CC(C)[C@@H](NS(=O)(=O)N1CCN(c2ccc(C#Cc3ccc4ccnc(C(N)=O)c4c3)cc2)CC1)C(=O)O` [Compound V-88, (R)-2-{4-[4-(1-carbamoylisoquinolin-7-ylethynyl)-phenyl]-piperazine-1-sulfonylamino}-3-methylbutanoic acid], the IC50 is 1000 to 10000 nM in experiment [1], over 10000 nM in experiment [2] and 24 nM in experiment [3].

Take `C[C@@H](NS(=O)(=O)N1CCN(c2ccc(C#Cc3ccc4c(c3)c(=O)n(Cc3ccc(F)cc3)c(=O)n4C)cc2)CC1)C(=O)O` [Compound V-71, (R)-2-(4-{4-[3-(4-fluorobenzyl)-1-methyl-2,4-dioxo-1,2,3,4-tetrahydroquinazolin-6-ylethynyl]-phenyl}-piperazine-1-sulfonylamino)-proponic acid]: the IC50 in experiment [1] was over 10000 nM; in experiment [2], over 10000 nM; in experiment [3], 8 nM.

In the case of `CC(C)[C@@H](NS(=O)(=O)N1CCN(c2ccc(C#Cc3ccnc(C(=O)NCc4ccc(C#N)cc4)c3)cc2)CC1)C(=O)O` [Compound V-31, (R)-2-(4-{4-[2-(4-cyanobenzylcarbamoyl)-pyridin-4-ylethynyl]-phenyl}-piperazine-1-sulfonylamino)-3-methylbutanoic acid], the IC50 in experiment [1] is 1000 to 10000 nM; in experiment [2], over 10000 nM; in experiment [3] it was 3 nM.

As to `CC(C)[C@@H](NS(=O)(=O)N1CCN(c2ccc(C#Cc3ccnc(C(=O)NCc4ccc(-n5cccn5)cc4)c3)cc2)CC1)C(=O)O` [III-214, (R)-3-methyl-2-(4-{4-[2-(4-pyrazol-1-ylbenzylcarbamoyl)-pyridin-4-ylethynyl]-phenyl}-piperazine-1-sulfonylamino)-butanoic acid], the IC50 in experiment [1] is 1000 to 10000 nM; in experiment [2], over 10000 nM; in experiment [3] it was 6 nM.

Regarding `CC(C)[C@@H](NS(=O)(=O)N1CCN(c2ccc(C#Cc3ccc4[nH]c(=O)n(Cc5ccc(F)cc5)c(=O)c4c3)cc2)CC1)C(=O)O` [III-72, (R)-2-(4-{4-[3-(4-fluorobenzyl)-2,4-dioxo-1,2,3,4-tetrahydroquinazolin-6-ylethynyl]-phenyl}-piperazine-1-sulfonylamino)-3-methylbutanoic acid], the concentration for half-maximal inhibition (IC50) is over 10000 nM in experiment [1], over 10000 nM in experiment [2] and 21 nM in experiment [3].

Turning to `CC(C)[C@@H](NS(=O)(=O)N1CCN(c2ccc(C#Cc3ccnc(C(=O)NCc4ccc(SC(F)(F)F)cc4)c3)cc2)CC1)C(=O)O` [III-222, (R)-3-methyl-2-(4-{4-[2-(4-trifluoromethylsulfanylbenzylcarbamoyl)-pyridin-4-ylethynyl]-phenyl}-piperazine-1-sulfonylamino)-butanoic acid], the figures for the IC50 in experiment [1], in experiment [2] and in experiment [3] were over 10000 nM, over 10000 nM and 23 nM, respectively.

With “(R)-2-{4-[4(1-methyloxazol-5-yl-1H-indol-5-ylethynyl)-phenyl]-piperazine-1-sulfonylamino}-proponic acid [Compound V-47]”, the IC50 is 1000 to 10000 nM in experiment [1], over 10000 nM in experiment [2] and 4 nM in experiment [3].

Take `CC(C)[C@@H](NS(=O)(=O)N1CCN(c2ccc(C#Cc3ccc4c(c3)C(=O)N(Cc3cccc(F)c3)C(C)(C)N4)cc2)CC1)C(=O)O` [Compound V-74, (R)-2(4-{4-[3-(3-fluorobenzyl)-2,2-dimethyl4-oxo-1,2,3,4-tetrahydroquinazolin-6-ylethynyl]-phenyl}-piperazine-1-sulfonylamino)-3-methylbutanoic acid]: the values for the IC50 in experiment [1], in experiment [2] and in experiment [3] were 1000 to 10000 nM, over 10000 nM and 16 nM, respectively.

As for `CC(C)[C@@H](NS(=O)(=O)N1CCN(c2ccc(C#Cc3ccc4[nH]c(=O)n(CC#N)c(=O)c4c3)cc2)CC1)C(=O)O` [Compound V-63, (R)-2-{4-[4-(3-cyanomethyl-2,4-dioxo-1,2,3,4-tetrahydroquinazolin-6-ylethynyl)-phenyl]-piperazine-1-sulfonylamino}-3-methylbutanoic acid], the IC50 in experiment [1] was 1000 to 10000 nM; in experiment [2], over 10000 nM; in experiment [3], 8 nM.

Consider `C[C@H](NS(=O)(=O)N1CCN(c2ccc(C#Cc3ccnc(C(=O)NCc4ccc(Cl)cc4)c3)cc2)CC1)C(=O)O` [III-59, (S)-2-(4-{4-[2-(4-chrolobenzylcarbamoyl)-pyridin-4-ylethynyl]-phenyl}-piperazine-1-sulfonylamino)-proponic acid], for which the half-inhibitory concentration (IC50) in experiment [1] is over 10000 nM; in experiment [2], over 10000 nM; in experiment [3] it was 6 nM.

In the case of `COc1ccc(Cn2c(=O)[nH]c3ccc(C#Cc4ccc(N5CCN(S(=O)(=O)N[C@@H](C(=O)O)C(C)C)CC5)cc4)cc3c2=O)cc1` [III-73, (R)-2-(4-{4-[3-(4-methoxybenzyl)-2,4-dioxo-1,2,3,4-tetrahydroquinazolin-6-ylethynyl]-phenyl}-piperazine-1-sulfonylamino)-3-methylbutanoic acid], the results for the IC50 in experiment [1], in experiment [2] and in experiment [3] were over 10000 nM, over 10000 nM and 23 nM, respectively.

Regarding `CC(C)[C@@H](NS(=O)(=O)N1CCN(c2ccc(C#Cc3ccnc(C(=O)NCc4cccs4)c3)cc2)CC1)C(=O)O` [III-187, (R)-3-methyl-2-[4-(4-{2-[(thiophen-2-ylmethyl)-carbamoyl]-pyridin-4-ylethynyl}-phenyl)-piperazine-1-sulfonylamino]-butanoic acid], the 50% inhibitory concentration (IC50) in experiment [1] is 1000 to 10000 nM; in experiment [2] it was over 10000 nM; in experiment [3] it was 7 nM.

As to `C[C@@H](NS(=O)(=O)N1CCN(c2ccc(C#Cc3nc(-c4cccc(OCc5ccccc5)c4)cs3)cc2)CC1)C(=O)O` [Compound V-11, (R)-2-(4-{4-[4-(3-benzyloxyphenyl)-thiazol-2-ylethynyl]-phenyl}-piperazine-1-sulfonylamino)-proponic acid], the IC50 in experiment [1] was 1000 to 10000 nM; in experiment [2] it was over 10000 nM; in experiment [3], 14 nM.

Regarding `CC(C)[C@@H](NS(=O)(=O)N1CCN(c2ccc(C#Cc3ccnc(C(=O)NCc4cccc(C#N)c4)c3)cc2)CC1)C(=O)O` [Compound V-32, (R)-2-(4-{4-[2-(3-cyanobenzylcarbamoyl)-pyridin-4-ylethynyl]-phenyl}-piperazine-1-sulfonylamino)-3-methylbutanoic acid], the IC50 was 1000 to 10000 nM in experiment [1], over 10000 nM in experiment [2] and 16 nM in experiment [3].

Source of the values: patent publication US20100099676A1 (SHIONOGI & CO., LTD., priority 2006, published 2010).
